Test results: patent US12310364B2, “Safened compositions comprising pyridine carboxylate herbicides and cloquintocet” (Corteva Agriscience LLC, priority 2018, dated 2025)

Tests used:
Format in all cases: in vivo
[1] = system: Triticum aestivum (spring wheat), TRZAS; assay: Greenhouse postemergence safening trial, visual injury on spring wheat
Procedure: (§1) Greenhouse Trial Methodology-Evaluation of Postemergence Herbicidal […] in Crops […] When required to ensure good germination and healthy plants, a fungicide treatment and/or other chemical or physical treatment was applied. The plants were grown for 7-36 days (d) in a greenhouse with an approximate 14-hour (h) photoperiod which was maintained at about 23° C. during the day and 22° C. during the night. Nutrients and water were added on a regular basis and supplemental lighting was provided with overhead metal halide 1000-Watt lamps as necessary. The plants were employed for testing when they reached the second or third true leaf stage. Emulsifiable concentrates of each of each pyridine carboxylate herbicide (Compound A or Compound B) were prepared at 100 grams acid equivalent per liter (g ae/L). […] The concentrated stock solutions were further diluted with an aqueous mixture of 1.25% […] or MSO® Concentrate with LECI-TECH® to obtain stock solutions at reduced application rates for each herbicide. Spray solutions of the herbicide combinations (Compound A or Compound B plus safener) were prepared by adding weighed amounts or aliquots of the safener to the stock solutions of Compound A or Compound B to form 12-mL spray solutions in two-way combinations. […] Control plants were sprayed in the same manner with the solvent blank. All herbicide (component a) application rates are given as “g ae/ha” and all safener (component b) application rates are given as “g ai/ha.” The treated plants and control plants were placed in a greenhouse as described above and watered by sub-irrigation to prevent wash-off of the test compounds.

[2] = system: Triticum aestivum (winter wheat), TRZAW; assay: Greenhouse postemergence safening trial, visual injury on winter wheat
Procedure: as §1

[3] = system: Triticum aestivum (durum wheat), TRZDU; assay: Greenhouse postemergence safening trial, visual injury on durum wheat
Procedure: as §1

[4] = system: Hordeum vulgare (spring barley), HORVS; assay: Greenhouse postemergence safening trial, visual injury on spring barley
Procedure: as §1

[5] = system: Hordeum vulgare (winter barley), HORVW; assay: Greenhouse postemergence safening trial, visual injury on winter barley
Procedure: as §1

[6] = system: Avena sativa (common oat), AVESA; assay: Greenhouse postemergence safening trial, visual injury on common oat
Procedure: as §1

[7] = system: Matricaria inodora (false chamomile), MATIN; assay: Greenhouse postemergence trial, visual injury on false chamomile
Excerpt: (§2) Greenhouse Trial Methodology—Evaluation of Postemergence Herbicidal Safening in Crops
(§3) Seeds of the desired test plant species were planted in a 90:10% v/v (volume/volume) mixture of PRO-MIX® BX (Premier Tech Horticulture, Quakertown, PA, USA) and PROFILE® GREENS GRADE™ (Profile Products LLC, Buffalo Grove, IL, USA) planting mixture, which typically has a pH of 5.2 to 6.2 and an organic matter content of at least 50 percent, in plastic pots with a surface area of 103.2 square centimeters (cm^2). When required to ensure good germination and healthy plants, a fungicide treatment and/or other chemical or physical treatment was applied. The plants were grown for 7-36 days (d) in a greenhouse with an approximate 14-hour (h) photoperiod which was maintained at about 23° C. during the day and 22° C. during the night. Nutrients and water were added on a regular basis and supplemental lighting was provided with overhead metal halide 1000-Watt lamps as necessary. The plants were employed for testing when they reached the second or third true leaf stage.
(§4) Emulsifiable concentrates of each of each pyridine carboxylate herbicide (Compound A or Compound B) were prepared at 100 grams acid equivalent per liter (g ae/L). An aliquot of each emulsifiable concentrate was placed in a 25 mL glass vial and diluted with an aqueous mixture of 1.25% (v/v) ACTIROB® B esterified rapeseed oil (Bayer Crop Science, Research Triangle Park, NC, USA) or MSO® Concentrate with LECI-TECH® methylated soybean oil (Loveland Products, Loveland, CO, USA) to obtain concentrated stock solutions at the highest application rate for each herbicide, based upon a 12 milliliter (mL) application volume at a rate of 187 liters per hectare (L/ha). The concentrated stock solutions were further diluted with an aqueous mixture of 1.25% v/v ACTIROB® B or MSO® Concentrate with LECI-TECH® to obtain stock solutions at reduced application rates for each herbicide. Spray solutions of the herbicide combinations (Compound A or Compound B plus safener) were prepared by adding weighed amounts or aliquots of the safener to the stock solutions of Compound A or Compound B to form 12-mL spray solutions in two-way combinations.
(§5) The spray solutions were applied to the plant material with an overhead Mandel track sprayer equipped with 8002E nozzles calibrated to deliver 187 L/ha over an application area of 0.503 square meters (m^2) at a spray height of 18 inches (43 centimeters (cm)) above the average plant canopy. Control plants were sprayed in the same manner with the solvent blank. All herbicide (component a) application rates are given as “g ae/ha” and all safener (component b) application rates are given as “g ai/ha.”
(§6) The treated plants and control plants were placed in a greenhouse as described above and watered by sub-irrigation to prevent wash-off of the test compounds. After 20-22 d, the condition of the test plants as compared with that of the control plants was determined visually and scored on a scale of 0 to 100 percent where 0 corresponds to no injury and 100 corresponds to complete kill.

[8] = system: Sinapis arvensis (wild mustard), SINAR; assay: Greenhouse postemergence trial, visual injury on wild mustard
Excerpt: as §2, §3, §4, §5, §6

[9] = system: Anthemis arvensis (field chamomile), ANTAR; assay: Greenhouse postemergence trial, visual injury on field chamomile
Excerpt: as §2, §3, §4, §5, §6

[10] = system: Brassica napus (winter rape), BRSNW; assay: Greenhouse postemergence trial, visual injury on winter rape
Procedure: as §1

maize (ZEAMX) = assay: Greenhouse postemergence safening trial, visual injury on maize; conditions: Table 18
Excerpt: as §2, §3, §4, §5, §6

[11] = system: pigweed (AMARE, Amaranthus retroflexus); assay: Greenhouse postemergence trial, visual injury on pigweed; conditions: Table 18
Excerpt: as §2, §3, §4, §5, §6

[12] = system: nutsedge (CYPES, Cyperus esculentus); assay: Greenhouse postemergence trial, visual injury on nutsedge; conditions: Table 18
Excerpt: as §2, §3, §4, §5, §6

[13] = system: common sunflower (HELAN, Helianthus annuus); assay: Greenhouse postemergence trial, visual injury on common sunflower; conditions: Table 18
Excerpt: as §2, §3, §4, §5, §6

[14] = system: Matricaria chamomilla (wild chamomile), MATCH; assay: Greenhouse postemergence trial, visual injury on wild chamomile
Procedure: as §1

[15] = system: Salsola kali (Russian thistle), SASKR; assay: Greenhouse postemergence trial, visual injury on Russian thistle
Procedure: as §1

[16] = system: Fagopyrum esculentum (common buckwheat), FAGES; assay: Greenhouse postemergence trial, visual injury on common buckwheat; conditions: herbicide alone 20 g/ha
Excerpt: as §2, §3, §4, §5, §6

[17] = system: Polygonum convulvus (wild buckwheat), POLCO; assay: Greenhouse postemergence trial, visual injury on wild buckwheat; conditions: herbicide alone 20 g/ha
Excerpt: as §2, §3, §4, §5, §6

O=C(O)COc1ccc(Cl)c2cccnc12 [CQC-a, cloquintocet-acid]
% visual injury, Ob ([1]; safener alone 5 g/ha): 0% | % visual injury, Ob ([1]; safener alone 10 g/ha): 0% | % visual injury, Ob ([1]; safener alone 20 g/ha): 0% | % visual injury, Ob ([1]; safener alone 40 g/ha): 0% | % visual injury, Ob ([1]; safener alone 80 g/ha): 0% | % visual injury, Ob ([1]; safener alone 120 g/ha): 0% | % visual injury, Ob ([2]; safener alone 5 g/ha): 0% | % visual injury, Ob ([2]; safener alone 10 g/ha): 0% | % visual injury, Ob ([2]; safener alone 20 g/ha): 0% | % visual injury Δ ([2]; safener alone 40 g/ha): 0% | % visual injury, Ob ([2]; safener alone 40 g/ha): 0% | % visual injury, Ob ([2]; safener alone 80 g/ha): 0% | % visual injury, Ob ([2]; safener alone 120 g/ha): 0% | % visual injury, Ob ([3]; safener alone 40 g/ha): 0% | % visual injury, Ob ([4]; safener alone 5 g/ha): 0% | % visual injury, Ob ([4]; safener alone 10 g/ha): 0% | % visual injury, Ob ([4]; safener alone 20 g/ha): 0% | % visual injury, Ob ([4]; safener alone 40 g/ha): 0% | % visual injury, Ob ([4]; safener alone 80 g/ha): 0% | % visual injury, Ob ([4]; safener alone 120 g/ha): 0% | % visual injury, Ob ([5]; safener alone 5 g/ha): 0% | % visual injury, Ob ([5]; safener alone 10 g/ha): 0% | % visual injury, Ob ([5]; safener alone 20 g/ha): 0% | % visual injury, Ob ([5]; safener alone 40 g/ha): 0% | % visual injury, Ob ([5]; safener alone 80 g/ha): 0% | % visual injury, Ob ([6]; safener alone 40 g/ha): 0% | % visual injury, Ob ([7]; safener alone 10 g/ha): 0% | % visual injury, Ob ([7]; safener alone 20 g/ha): 0% | % visual injury, Ob ([7]; safener alone 40 g/ha): 0% | % visual injury, Ob ([7]; safener alone 80 g/ha): 0% | % visual injury, Ob ([8]; safener alone 10 g/ha): 0% | % visual injury, Ob ([8]; safener alone 20 g/ha): 0% | % visual injury, Ob ([8]; safener alone 40 g/ha): 0% | % visual injury, Ob ([8]; safener alone 80 g/ha): 0% | % visual injury, Ob ([9]; safener alone 5 g/ha): 0% | % visual injury, Ob ([9]; safener alone 10 g/ha): 0% | % visual injury, Ob ([9]; safener alone 20 g/ha): 0% | % visual injury, Ob ([9]; safener alone 40 g/ha): 0% | % visual injury, Ob ([10]; safener alone 5 g/ha): 0% | % visual injury, Ob ([10]; safener alone 10 g/ha): 0% | % visual injury, Ob ([10]; safener alone 20 g/ha): 0% | % visual injury, Ob ([10]; safener alone 40 g/ha): 0% | % visual injury, Ob (maize (ZEAMX); CQC-a 20 g/ha alone): 0% | % visual injury, Ob (maize (ZEAMX); CQC-a 40 g/ha alone): 0% | % visual injury, Ob (maize (ZEAMX); CQC-a 80 g/ha alone): 0% | % visual injury, Ob (maize (ZEAMX); CQC-a 120 g/ha alone): 0% | % visual injury, Ob ([11]; CQC-a 20 g/ha alone): 0% | % visual injury, Ob ([11]; CQC-a 40 g/ha alone): 0% | % visual injury, Ob ([11]; CQC-a 80 g/ha alone): 0% | % visual injury, Ob ([11]; CQC-a 120 g/ha alone): 0% | % visual injury, Ob ([12]; CQC-a 20 g/ha alone): 0% | % visual injury, Ob ([12]; CQC-a 40 g/ha alone): 0% | % visual injury, Ob ([12]; CQC-a 80 g/ha alone): 0% | % visual injury, Ob ([12]; CQC-a 120 g/ha alone): 0% | % visual injury, Ob ([13]; CQC-a 20 g/ha alone): 0% | % visual injury, Ob ([13]; CQC-a 40 g/ha alone): 0% | % visual injury, Ob ([13]; CQC-a 80 g/ha alone): 0% | % visual injury, Ob ([13]; CQC-a 120 g/ha alone): 0%

CCN(CC)CC.O=C(O)COc1ccc(Cl)c2cccnc12 [CQC-TEA, cloquintocet-triethylamine salt]
% visual injury, Ob ([1]; safener alone 10 g/ha): 0% | % visual injury, Ob ([1]; safener alone 20 g/ha): 0% | % visual injury, Ob ([1]; safener alone 40 g/ha): 0% | % visual injury, Ob ([2]; safener alone 40 g/ha): 0% | % visual injury, Ob ([3]; safener alone 40 g/ha): 0% | % visual injury, Ob ([4]; safener alone 10 g/ha): 0% | % visual injury, Ob ([4]; safener alone 20 g/ha): 0% | % visual injury, Ob ([4]; safener alone 40 g/ha): 0% | % visual injury Δ ([5]; safener alone 40 g/ha): 0% | % visual injury, Ob ([5]; safener alone 40 g/ha): 0% | % visual injury, Ob ([6]; safener alone 40 g/ha): 0% | % visual injury, Ob ([10]; safener alone 10 g/ha): 0% | % visual injury, Ob ([10]; safener alone 20 g/ha): 0% | % visual injury, Ob ([10]; safener alone 40 g/ha): 0% | % visual injury, Ob ([14]; safener alone 10 g/ha): 0% | % visual injury, Ob ([14]; safener alone 20 g/ha): 0% | % visual injury, Ob ([14]; safener alone 40 g/ha): 0% | % visual injury, Ob ([15]; safener alone 10 g/ha): 0% | % visual injury, Ob ([15]; safener alone 20 g/ha): 0% | % visual injury, Ob ([15]; safener alone 40 g/ha): 0%

C#CCOC(=O)c1nc(-c2ccc3cc[nH]c3c2F)c(F)c(N)c1Cl [Compound B, propargyl 4-amino-3-chloro-5-fluoro-6-(7-fluoro-1H-indol-6-yl)pyridine-2-carboxylate]
% visual injury, Ob ([1]; herbicide alone 20 g/ha): 28% | % visual injury, Ob ([1]; herbicide alone 40 g/ha): 48% | % visual injury, Ob ([2]; herbicide alone 40 g/ha): 50% | % visual injury, Ob ([3]; herbicide alone 40 g/ha): 40% | % visual injury, Ob ([4]; herbicide alone 20 g/ha): 30% | % visual injury, Ob ([4]; herbicide alone 40 g/ha): 25% | % visual injury Δ ([5]; herbicide alone 40 g/ha): 0% | % visual injury, Ob ([5]; herbicide alone 40 g/ha): 38% | % visual injury, Ob ([6]; herbicide alone 40 g/ha): 0% | % visual injury, Ob ([8]; herbicide alone 20 g/ha): 80% | % visual injury, Ob ([10]; herbicide alone 20 g/ha): 100% | % visual injury, Ob ([15]; herbicide alone 20 g/ha): 70% | % visual injury, Ob [16]: 78% | % visual injury, Ob [17]: 100%
